# Experiments:
# in vivo = conditions: Sprague-Dawley, rat, po, 39.2 g/kg/day, then oral SM 39.2 g crude drug/kg, plasma, mean ± SEM; for Cmax: C max; for Tmax: T max
# [1] = PK study of SM components in plasma of AIA rats by UPLC-MS/MS (MG vs MPS group); conditions: for Absorption under the intervention of PS: MPS vs MG group; for T max / AUC 0-t / t 1/2 / AUC(0-inf) / Cmax / Tmax / half-life / AUC 0-∞ / C max: then oral SM 39.2 g crude drug/kg, plasma, mean ± SEM; for Cmax: C max; for Tmax: T max
# [2] = MG group: AIA rats, saline 21 days
# [3] = MPS group: AIA rats, oral PS 9.8 g crude drug/kg/day 21 days
# [4] = t 1/2, MG group: AIA rats, saline 21 days
# [5] = t 1/2, MPS group: AIA rats, oral PS 9.8 g crude drug/kg/day 21 days
# [6] = MPS group compared with the MG group, AIA rats
# [7] = Sprague-Dawley, rat, po, 39.2 g/kg/day, AUC 0-t, MG group: AIA rats, saline 21 days
# [8] = Sprague-Dawley, rat, po, 39.2 g/kg/day, AUC 0-t, MPS group: AIA rats, oral PS 9.8 g crude drug/kg/day 21 days
# [9] = Sprague-Dawley, rat, po, 39.2 g/kg/day, MG group: AIA rats, saline 21 days
# [10] = Sprague-Dawley, rat, po, 39.2 g/kg/day, MPS group: AIA rats, oral PS 9.8 g crude drug/kg/day 21 days
# [11] = Sprague-Dawley, rat, po, 39.2 g/kg/day, t 1/2, MPS group: AIA rats, oral PS 9.8 g crude drug/kg/day 21 days
# [12] = Sprague-Dawley, rat, po, 39.2 g/kg/day, t 1/2, MG group: AIA rats, saline 21 days
SMILES,AUC 0-t (in vivo; [2]) [ng·h/mL],AUC 0-t (in vivo; [3]) [ng·h/mL],AUC(0-inf) (in vivo; [2]) [ng·h/mL],AUC(0-inf) (in vivo; [3]) [ng·h/mL],Cmax (in vivo; [2]) [ng/mL],Cmax (in vivo; [3]) [ng/mL],Tmax (in vivo; [2]) [h],Tmax (in vivo; [3]) [h],half-life (in vivo; [4]) [h],half-life (in vivo; [5]) [h],Absorption under the intervention of PS ([1]; AIA rats),"T max [1, 2] [h]","AUC 0-t [1, 3] [ng·h/mL]","t 1/2 [1, 2] [h]","Change of C max after oral PS [1, 6]","AUC 0-∞ [1, 3] [ng·h/mL]","C max [1, 3] [ng/mL]","AUC 0-t [1, 2] [ng·h/mL]",also measured
COc1ccc(-c2coc3cc(O)ccc3c2=O)cc1O [Calycosin],12.3 ± 1.06,12.4 ± 0.972,14.3 ± 1.19,13.6 ± 0.642,8.48 ± 2.43,6.61 ± 1.44,0.083 ± 0.001,0.083 ± 0.001,4.94 ± 0.315,3.53 ± 0.666,,,,,,,,,
O=C(/C=C/c1ccc(O[C@@H]2O[C@H](CO)[C@@H](O)[C@H](O)[C@H]2O)cc1)c1ccc(O)cc1O [Isoliquiritin],23.3 ± 0.956,21.9 ± 1.76,30.8 ± 2.93,33.1 ± 3.19,13.6 ± 1.06,14.2 ± 1.55,0.194 ± 0.079,0.111 ± 0.062,5.85 ± 2.02,7.61 ± 1.85,,,,,,,,,
C[C@@]12C[C@@]3(O)O[C@@H](O1)[C@]1(COC(=O)c4ccccc4)[C@H]3C[C@@]12O[C@@H]1O[C@H](CO)[C@@H](O)[C@H](O)[C@H]1O [Paeoniflorin],2540 ± 95.9,2870 ± 71.7,2460 ± 223,2900 ± 68.7,1920 ± 225,2060 ± 352,0.438 ± 0.108,0.396 ± 0.18,2.13 ± 0.102,1.99 ± 0.126,increased,,,,,,,,"Change of AUC 0-t after oral PS [1, 6]: increased; Change of AUC 0-∞ after oral PS [1, 6]: increased"
CN[C@@H](C)[C@H](O)c1ccccc1 [Ephedrine],1720 ± 96.8,,1750 ± 93.6,1580 ± 228,674 ± 137,662 ± 149,,0.333 ± 0.118,1.85 ± 0.273,1.74 ± 0.108,,0.250 ± 0.001,1559.029 ± 227.025,,,,,,
CC1(C)[C@@H](O[C@H]2O[C@H](C(=O)O)[C@@H](O)[C@H](O)[C@H]2O[C@@H]2O[C@H](C(=O)O)[C@@H](O)[C@H](O)[C@H]2O)CC[C@]2(C)[C@H]3C(=O)C=C4[C@@H]5C[C@@](C)(C(=O)O)CC[C@]5(C)CC[C@@]4(C)[C@]3(C)CC[C@@H]12 [Glycyrrhizic acid],,,,,,,,,,,increased,,,7.605 ± 1.142,significantly increased,,,,"AUC 0-t [1, 7]: 23100 ng·h/mL; AUC 0-t [1, 8]: 29600 ng·h/mL; AUC(0-inf) [1, 9]: 25900 ng·h/mL; AUC(0-inf) [1, 10]: 27400 ng·h/mL; Cmax [1, 9]: 3800 ± 304 ng/mL; Cmax [1, 10]: 5200 ± 706 ng/mL; Tmax [1, 9]: 0.5 ± 0.001 h; Tmax [1, 10]: 0.667 ± 0.236 h; half-life [1, 11]: 7.25 ± 0.086 h"
O=C1C[C@@H](c2ccc(O[C@@H]3O[C@H](CO)[C@@H](O)[C@H](O)[C@H]3O)cc2)Oc2cc(O)ccc21 [Liquiritin],300 ± 52.8,,307 ± 53.9,,126 ± 18.5,,0.167 ± 0.083,0.083 ± 0.001,2.09 ± 0.132,3.3 ± 0.429,increased,,321.663 ± 49.723,,significantly increased,339.781 ± 52.584,190.023 ± 19.153,,
O=C(/C=C/c1ccc(O)cc1)c1ccc(O)cc1O [Isoliquiritigenin],,,,,,,,,,,increased,,,,significantly increased,,,,"AUC 0-t [1, 7]: 8.76 ± 1.42 ng·h/mL; AUC 0-t [1, 8]: 9.47 ± 1.45 ng·h/mL; AUC(0-inf) [1, 9]: 9.61 ± 1.6 ng·h/mL; AUC(0-inf) [1, 10]: 10.5 ± 1.27 ng·h/mL; Cmax [1, 9]: 4 ± 0.545 ng/mL; Cmax [1, 10]: 5.42 ± 0.422 ng/mL; Tmax [1, 9]: 0.083 ± 0.001 h; Tmax [1, 10]: 0.167 ± 0.083 h; half-life [1, 12]: 3.12 ± 0.571 h; half-life [1, 11]: 3.87 ± 0.889 h"
CCN1C[C@]2(COC)CC[C@H](OC)[C@]34C1[C@H](C[C@H]23)[C@@]1(O)C[C@H](OC)[C@H]2C[C@@H]4[C@@H]1[C@H]2O [Talatizamine],,,,,,,,,,,,0.417 ± 0.276,22.338 ± 1.786,6.242 ± 1.838,,28.106 ± 2.545,3.576 ± 0.320,21.996 ± 1.581,"AUC 0-∞ [1, 2]: 30.766 ± 4.871 ng·h/mL; C max [1, 2]: 3.376 ± 0.595 ng/mL; T max [1, 3]: 0.292 ± 0.093 h; t 1/2 [1, 3]: 5.163 ± 1.483 h"
CCN1C[C@]2(COC)[C@H](O)C[C@H](OC)[C@@]34[C@@H]5C[C@@]6(O)[C@H](OC(=O)c7ccccc7)[C@@H]5[C@@](O)([C@@H]([C@H](OC)[C@H]23)[C@@H]14)[C@@H](O)[C@@H]6OC [Benzoylaconine],,,,,,,,,,,,0.125 ± 0.072,1.064 ± 0.136,7.430 ± 5.148,,1.202 ± 0.128,0.720 ± 0.116,0.764 ± 0.082,"AUC 0-∞ [1, 2]: 1.015 ± 0.158 ng·h/mL; C max [1, 2]: 0.548 ± 0.178 ng/mL; T max [1, 3]: 0.083 ± 0.001 h; t 1/2 [1, 3]: 3.875 ± 1.842 h"
C[C@@]12C[C@@]3(O)O[C@@H](O1)[C@]1(COC(=O)c4ccccc4)[C@H]3C[C@@]12O[C@@H]1O[C@H](COC(=O)c2ccccc2)[C@@H](O)[C@H](O)[C@H]1O [Benzoylpaeoniflorin],27.9 ± 5.4,31.6 ± 6.74,30.6 ± 6.08,37.9 ± 9.82,14.8 ± 2.66,24.3 ± 4,0.139 ± 0.079,0.083 ± 0.001,3.59 ± 0.489,6.96 ± 2.27,increased,,,,significantly increased,,,,
CCN1C[C@]2(COC)CC[C@H](O)[C@]34C1[C@H]([C@H](OC)[C@H]23)[C@@]1(O)C[C@H](OC)[C@H]2C[C@@H]4[C@@H]1[C@H]2O [Neoline],,,,,,,,,,,,0.333 ± 0.118,7.559 ± 0.880,3.245 ± 0.999,,7.980 ± 0.757,3.695 ± 1.005,7.417 ± 0.718,"AUC 0-∞ [1, 2]: 8.058 ± 0.838 ng·h/mL; C max [1, 2]: 3.221 ± 1.040 ng/mL; T max [1, 3]: 0.250 ± 0.001 h; t 1/2 [1, 3]: 2.486 ± 0.349 h"
COc1ccc(-c2coc3cc(O)ccc3c2=O)cc1 [Formononetin],,,,,,,,,,,decreased,,,,reduced,,,15.278 ± 1.823,"AUC 0-t [1, 8]: 12.3 ± 1.98 ng·h/mL; AUC(0-inf) [1, 9]: 17.5 ± 1.69 ng·h/mL; AUC(0-inf) [1, 10]: 13.6 ± 1.93 ng·h/mL; Cmax [1, 9]: 7.39 ± 1.16 ng/mL; Cmax [1, 10]: 4.5 ± 0.902 ng/mL; Tmax [1, 9]: 0.083 ± 0.001 h; Tmax [1, 10]: 0.25 ± 0.001 h; half-life [1, 12]: 4.27 ± 0.406 h; half-life [1, 11]: 3.76 ± 0.557 h"

# Reference: PMC10787407, “Regulation of polysaccharide in Wu‐tou decoction on intestinal microflora and pharmacokinetics of small molecular compounds in AIA rats” (Chinese Medicine, 2024)
